According to US4081441A, “Antibacterial agents” (priority 1977, dated 1978):
Read-outs that look alike come from different tables or passages of the source.

How the values were obtained:
[1] = tested on: Pseudomonas aeruginosa; test: In vitro bactericidal synergism, broth dilution checkerboard; type: cell-based; settings: for MBC: Pseudomonas aeruginosa, drug alone, read-out: Minimum Bactericidal Concentration
[2] = tested on: Pseudomonas aeruginosa A9843A; type: in vivo, mice; settings: mouse, in vivo
[3] = tested on: Cl. chauvoei; test: M.I.C. against anaerobic bacteria, Cl. chauvoei; type: cell-based; settings: strain A9561
[4] = tested on: Pseudomonas aeruginosa; test: Minimum Bactericidal Concentration of BL-P1937, at least 99.9% kill, three inoculum sizes; type: cell-based
Method: The bactericidal in vitro activity of BL-P1937 against Pseudomonas aeruginosa strains was also determined. Three tests were run, using initial inoculum sizes of 2.4 × 10^5, 1.6 × 10^5 and 1.4 × 10^5 cells/ml., respectively, and the M.B.C. was defined as the lowest concentration of antibiotic in mcg./ml. needed to kill at least 99.9% of viable Pseudomonas cells.

[5] = Mouse blood (serum) antibiotic levels after single intramuscular dose; type: in vivo; settings: im, mice, 40 mg./kg. i.m., read-out: Blood Level
Method: Serum antibiotic levels from mice administered a single intramuscular dose of 40 mg./kg. of BL-[…] or carbenicillin are shown below.

[6] = tested on: Pseudomonas aeruginosa; test: Minimum Inhibitory Concentration, tube dilution, overnight incubation at 37° C.; type: cell-based
[7] = mice, 40 mg./kg. i.m., Literature values, cited from earlier work
[8] = tested on: Pseudomonas aeruginosa; settings: prior art; cited from earlier work
[9] = mice, 40 mg./kg. i.m., Literature values, cited from earlier work; remark: listed apart in the source

Compound CC1(C)S[C@@H]2[C@H](NC(=O)[C@H](NC(=O)c3n[nH]c(=O)[nH]c3=O)c3ccc(O)cc3)C(=O)N2[C@H]1C(=O)O [BL-P1908, sodium D(-)-6-(α-(1,2,4-triazine-3,5-dione-6-carboxamido)-4-hydroxyphenylacetamido)penicillanate] has an MBC ([1]; strain A20552) of 500 µg/mL, an MBC ([1]; strain A21509) of 500 µg/mL and an MBC ([1]; strain A21510) of 100 µg/mL. The strain sensitivity ([1]; strain A9843A) was “sensitive”, the strain sensitivity ([1]; strain A20480) was “resistant” and the strain sensitivity ([1]; strain A20552) was “sensitive”. For the same compound, the strain sensitivity ([1]; strain A20620) was “resistant”, the strain sensitivity ([1]; strain A21509) was “sensitive” and the strain sensitivity ([1]; strain A21510) was “sensitive”. For the same compound, the “equally effective dosage, drug alone” value [2] was 5 mg/kg and the MIC [3] was 4 µg/mL.

With CC1(C)S[C@@H]2[C@H](NC(=O)[C@H](NC(=O)c3n[nH]c(=S)[nH]c3=O)c3ccc(O)cc3)C(=O)N2[C@H]1C(=O)O [BL-P1937, sodium D(-)-6-(α-(1,2,4-triazine-3-thione-5-one-6-carboxamido)-4-hydroxyphenylacetamido)-penicillanate] the MBC ([4]; strain A9843A, Test 1, inoculum 2.4 × 10^5) was 125 µg/mL, the MBC ([4]; strain A9910, Test 1, inoculum 2.4 × 10^5, read-out: M.B.C.) was 125 µg/mL and the MBC ([4]; strain A9910, Test 2, inoculum 1.6 × 10^5, read-out: M.B.C.) was 250 µg/mL. For the same compound, the MBC ([4]; strain A9910, Test 3, inoculum 1.4 × 10^5, read-out: M.B.C.) was 500 µg/mL, the MBC ([4]; strain A9926, Test 1, inoculum 2.4 × 10^5, read-out: M.B.C.) was 250 µg/mL and the MBC ([4]; strain A9926, Test 2, inoculum 1.6 × 10^5, read-out: M.B.C.) was 1000 µg/mL. For the same compound, the MBC ([4]; strain A9926, Test 3, inoculum 1.4 × 10^5, read-out: M.B.C.) was 250 µg/mL, the MBC ([4]; strain A20126, Test 1, inoculum 2.4 × 10^5, read-out: M.B.C.) was 16 µg/mL and the MBC ([4]; strain A20126, Test 2, inoculum 1.6 × 10^5, read-out: M.B.C.) was 63 µg/mL. The MBC ([4]; strain A20126, Test 3, inoculum 1.4 × 10^5, read-out: M.B.C.) was 63 µg/mL, the MBC ([4]; strain A20128, Test 1, inoculum 2.4 × 10^5, read-out: M.B.C.) was 16 µg/mL and the MBC ([4]; strain A20128, Test 2, inoculum 1.6 × 10^5, read-out: M.B.C.) was 16 µg/mL. It also gave an MBC ([4]; strain A20128, Test 3, inoculum 1.4 × 10^5, read-out: M.B.C.) of 63 µg/mL, an MBC ([4]; strain A20227, Test 1, inoculum 2.4 × 10^5, read-out: M.B.C.) of 63 µg/mL and an MBC ([4]; strain A20227, Test 2, inoculum 1.6 × 10^5, read-out: M.B.C.) of 8 µg/mL. The MBC ([4]; strain A20227, Test 3, inoculum 1.4 × 10^5, read-out: M.B.C.) was 16 µg/mL, the MBC ([4]; strain A20228, Test 1, inoculum 2.4 × 10^5, read-out: M.B.C.) was 125 µg/mL and the MBC ([4]; strain A20228, Test 2, inoculum 1.6 × 10^5, read-out: M.B.C.) was 500 µg/mL. It also gave an MBC ([4]; strain A20228, Test 3, inoculum 1.4 × 10^5, read-out: M.B.C.) of 250 µg/mL, an MBC ([4]; strain A20546, Test 1, inoculum 2.4 × 10^5, read-out: M.B.C.) of 250 µg/mL and an MBC ([4]; strain A20546, Test 2, inoculum 1.6 × 10^5, read-out: M.B.C.) of 1000 µg/mL. For the same compound, the MBC ([4]; strain A20546, Test 3, inoculum 1.4 × 10^5, read-out: M.B.C.) was 500 µg/mL, the MBC ([4]; strain A20557, Test 1, inoculum 2.4 × 10^5, read-out: M.B.C.) was 250 µg/mL and the MBC ([4]; strain A20557, Test 2, inoculum 1.6 × 10^5, read-out: M.B.C.) was 1000 µg/mL. For the same compound, the MBC ([4]; strain A20557, Test 3, inoculum 1.4 × 10^5, read-out: M.B.C.) was 500 µg/mL, the MBC ([4]; strain A20574, Test 1, inoculum 2.4 × 10^5, read-out: M.B.C.) was 250 µg/mL and the MBC ([4]; strain A20574, Test 2, inoculum 1.6 × 10^5, read-out: M.B.C.) was 250 µg/mL. For the same compound, the MBC ([4]; strain A20574, Test 3, inoculum 1.4 × 10^5, read-out: M.B.C.) was 500 µg/mL, the MBC ([4]; strain A20602, Test 1, inoculum 2.4 × 10^5, read-out: M.B.C.) was 250 µg/mL and the MBC ([4]; strain A20602, Test 2, inoculum 1.6 × 10^5, read-out: M.B.C.) was 500 µg/mL. It also gave an MBC ([4]; strain A20602, Test 3, inoculum 1.4 × 10^5, read-out: M.B.C.) of 500 µg/mL, an MBC ([4]; strain A20616, Test 1, inoculum 2.4 × 10^5, read-out: M.B.C.) of 125 µg/mL and an MBC ([4]; strain A20616, Test 2, inoculum 1.6 × 10^5, read-out: M.B.C.) of 250 µg/mL. For the same compound, the MBC ([4]; strain A20616, Test 3, inoculum 1.4 × 10^5, read-out: M.B.C.) was 500 µg/mL, the MBC ([4]; strain A20641, Test 1, inoculum 2.4 × 10^5, read-out: M.B.C.) was 125 µg/mL and the MBC ([4]; strain A20641, Test 2, inoculum 1.6 × 10^5, read-out: M.B.C.) was 250 µg/mL. For the same compound, the MBC ([4]; strain A20641, Test 3, inoculum 1.4 × 10^5, read-out: M.B.C.) was 250 µg/mL, the MBC ([4]; strain A20717, Test 1, inoculum 2.4 × 10^5, read-out: M.B.C.) was 500 µg/mL and the MBC ([4]; strain A20717, Test 2, inoculum 1.6 × 10^5, read-out: M.B.C.) was 1000 µg/mL. For the same compound, the MBC ([4]; strain A20717, Test 3, inoculum 1.4 × 10^5, read-out: M.B.C.) was greater than 1000 µg/mL, the MBC ([4]; strain A20726, Test 1, inoculum 2.4 × 10^5, read-out: M.B.C.) was 32 µg/mL and the MBC ([4]; strain A20726, Test 2, inoculum 1.6 × 10^5, read-out: M.B.C.) was 250 µg/mL. The MBC ([4]; strain A20726, Test 3, inoculum 1.4 × 10^5, read-out: M.B.C.) was 500 µg/mL, the MBC ([4]; strain A21336, Test 1, inoculum 2.4 × 10^5, read-out: M.B.C.) was 250 µg/mL and the MBC ([4]; strain A21336, Test 2, inoculum 1.6 × 10^5, read-out: M.B.C.) was 500 µg/mL. The MBC ([4]; strain A21336, Test 3, inoculum 1.4 × 10^5, read-out: M.B.C.) was 500 µg/mL, the concentration at 0.25 h ([5]; 15 min.) was 19900 ng/mL and the concentration at 0.5 h ([5]; 30 min.) was 10300 ng/mL. It also gave a concentration at 1 h ([5]; 60 min.) of less than 2200 ng/mL, a concentration at 1.5 h ([5]; 90 min.) of less than 2200 ng/mL and an MIC ([6]; strain A9910, Test 1) of 1 µg/mL. It also gave an MIC ([6]; strain A9910, Test 2) of 2 µg/mL, an MIC ([6]; strain A9910, Test 3) of 4 µg/mL and an MIC ([6]; strain A9926, Test 1) of 2 µg/mL. For the same compound, the MIC ([6]; strain A9926, Test 2) was 4 µg/mL, the MIC ([6]; strain A9926, Test 3) was 2 µg/mL and the MIC ([6]; strain A20126, Test 2) was 8 µg/mL. The MIC ([6]; strain A20126, Test 3) was 4 µg/mL, the MIC ([6]; strain A20128, Test 1) was 2 µg/mL and the MIC ([6]; strain A20128, Test 2) was 2 µg/mL. It also gave an MIC ([6]; strain A20128, Test 3) of 2 µg/mL, an MIC ([6]; strain A20227, Test 1) of 4 µg/mL and an MIC ([6]; strain A20227, Test 2) of 4 µg/mL. The MIC ([6]; strain A20227, Test 3) was 2 µg/mL, the MIC ([6]; strain A20228, Test 1) was 2 µg/mL and the MIC ([6]; strain A20228, Test 2) was 8 µg/mL. For the same compound, the MIC ([6]; strain A20228, Test 3) was 2 µg/mL, the MIC ([6]; strain A20546, Test 1) was 2 µg/mL and the MIC ([6]; strain A20546, Test 2) was 2 µg/mL. The MIC ([6]; strain A20546, Test 3) was 2 µg/mL, the MIC ([6]; strain A20557, Test 1) was 2 µg/mL and the MIC ([6]; strain A20557, Test 2) was 4 µg/mL. The MIC ([6]; strain A20557, Test 3) was 4 µg/mL, the MIC ([6]; strain A20574, Test 1) was 4 µg/mL and the MIC ([6]; strain A20574, Test 2) was 2 µg/mL. It also gave an MIC ([6]; strain A20574, Test 3) of 2 µg/mL, an MIC ([6]; strain A20602, Test 1) of 4 µg/mL and an MIC ([6]; strain A20602, Test 2) of 8 µg/mL. It also gave an MIC ([6]; strain A20602, Test 3) of 2 µg/mL, an MIC ([6]; strain A20616, Test 1) of 2 µg/mL and an MIC ([6]; strain A20616, Test 2) of 4 µg/mL. For the same compound, the MIC ([6]; strain A20616, Test 3) was 4 µg/mL, the MIC ([6]; strain A20641, Test 1) was 8 µg/mL and the MIC ([6]; strain A20641, Test 2) was 8 µg/mL. It also gave an MIC ([6]; strain A20641, Test 3) of 8 µg/mL, an MIC ([6]; strain A20717, Test 1) of 16 µg/mL and an MIC ([6]; strain A20717, Test 2) of 32 µg/mL. The MIC ([6]; strain A20717, Test 3) was 16 µg/mL, the MIC ([6]; strain A20726, Test 1) was 2 µg/mL and the MIC ([6]; strain A20726, Test 2) was 8 µg/mL. The MIC ([6]; strain A20726, Test 3) was 8 µg/mL, the MIC ([6]; strain A21336, Test 1) was 4 µg/mL and the MIC ([6]; strain A21336, Test 2) was 8 µg/mL. It also gave an MIC ([6]; strain A21336, Test 3) of 4 µg/mL.

In the case of CC1(C)S[C@@H]2[C@H](NC(=O)C(C(=O)O)c3ccccc3)C(=O)N2[C@H]1C(=O)O (stereo partly drawn) [Carbenicillin, reference compound], the “Blood Level” value ([7]; 15 min.) is listed as 18100 ng/mL, the “Blood Level” value ([7]; 30 min.) is listed as 8100 ng/mL and the “Blood Level” value ([7]; 60 min.) is listed as less than 4600 ng/mL. The “Blood Level” value ([7]; 90 min.) was less than 4600 ng/mL, the “potency against Pseudomonas aeruginosa” value [8] was “relatively low potency” and the “Blood Level” value ([9]; 15 min.) was 18100 ng/mL. For the same compound, the “Blood Level” value ([9]; 30 min.) was 8100 ng/mL, the “Blood Level” value ([9]; 60 min.) was less than 4600 ng/mL and the “Blood Level” value ([9]; 90 min.) was less than 4600 ng/mL.
